Laboratory results as given in ChEMBL document CHEMBL5042495, “Lead Optimization of Influenza Virus RNA Polymerase Inhibitors Targeting PA-PB1 Interaction” (J Med Chem, 2022).

Assays:
Influenza A virus = assay: Antiviral activity against Influenza A virus A/WSN/33(H1N1) strain infected in MDCK cells assessed as reduction in viral infection incubated for 48 hrs by crystal violet staining based assay; format: functional, organism-based
[1] = Cytotoxicity in dog MDCK cells assessed as reduction in cell viability incubated for 48 hrs by crystal violet staining based assay; format: toxicity, Canis lupus familiaris
HEK293T = assay: Inhibition of Influenza A virus RNA dependent RNA polymerase activity in HEK293T cells co-transfected with pPoll/NP(0)GFP(0) at 10 to 40 uM after 2 hrs post-transfection followed by compound addition incubated for 22 hrs by fluorescence microscopic analysis; format: cell-based; details: dose 10-40 µM

CC(C)c1ccc2[nH]c(=O)c(CN(Cc3ccc(C(C)(C)C)cc3)C(C)c3ccc(N(C)C)c(Cl)c3)cc2c1 (configuration not stated)
EC50 (Influenza A virus): 0.68 µM | CC50 at 48 h [1]: > 10 µM

CCc1ccc2[nH]c(=O)c(CN(Cc3ccc(O)cc3)Cc3ccc(C(C)(C)C)cc3)cc2c1
EC50 (Influenza A virus): 1.8 µM | CC50 at 48 h [1]: > 10 µM

Cc1ccc2[nH]c(=O)c(C(C#N)N(Cc3ccccc3)Cc3ccc(C(C)C)cc3)cc2c1 (configuration not stated)
EC50 (Influenza A virus): 15 µM | CC50 at 48 h [1]: > 83 µM

Cc1ccc2[nH]c(=O)c(CN(Cc3ccccc3)Cc3ccc(C(C)(C)C)cc3)cc2c1
EC50 (Influenza A virus): 0.92 µM | CC50 at 48 h [1]: > 5 µM

CCC(C)(C)n1nnnc1C(c1cc2cccc(C)c2[nH]c1=O)N(Cc1ccccc1)Cc1ccc(F)cc1 (configuration not stated)
EC50 (Influenza A virus): 0.57 µM | CC50 at 48 h [1]: > 83 µM | inhibition (HEK293T): Dose-Dependent Effect

COc1ccc([C@H](C)N(Cc2ccc(C(C)(C)C)cc2)Cc2cc3cc(C(C)C)ccc3[nH]c2=O)cc1
EC50 (Influenza A virus): 0.48 µM | CC50 at 48 h [1]: > 10 µM

Cc1ccc2[nH]c(=O)c(CN(Cc3ccc(F)cc3)Cc3cccc4ccccc34)cc2c1
EC50 (Influenza A virus): 1.8 µM | CC50 at 48 h [1]: > 5 µM

Cc1ccc2[nH]c(=O)c(CN(Cc3ccc(OCC(=O)OC(C)(C)C)cc3)Cc3ccc(C(C)(C)C)cc3)cc2c1
EC50 (Influenza A virus): 1.8 µM | CC50 at 48 h [1]: > 10 µM

Cc1ccc2cc(CN(Cc3ccc(C(C)(C)C)cc3)CC3CCCCC3)c(=O)[nH]c2c1
EC50 (Influenza A virus): 1.9 µM | CC50 at 48 h [1]: > 10 µM

Cc1ccc2[nH]c(=O)c(CN(Cc3ccc(OC(F)F)cc3)Cc3ccc(C(C)(C)C)cc3)cc2c1
EC50 (Influenza A virus): 0.27 µM | CC50 at 48 h [1]: > 5 µM

CCc1ccc2[nH]c(=O)c(CN(Cc3ccc(OC(F)F)cc3)Cc3ccc(C(C)(C)C)cc3)cc2c1
EC50 (Influenza A virus): 0.46 µM | CC50 at 48 h [1]: > 5 µM

CC(c1ccc(OC(F)(F)F)c(Cl)c1)N(Cc1ccc(C(C)(C)C)cc1)Cc1cc2cc(C3CC3)ccc2[nH]c1=O (configuration not stated)
EC50 (Influenza A virus): 1.2 µM | CC50 at 48 h [1]: > 10 µM

Cc1ccc2cc(CN(Cc3ccc(F)cc3)Cc3ccc(C(C)(C)C)cc3)c(=O)[nH]c2c1
EC50 (Influenza A virus): 1.6 µM | CC50 at 48 h [1]: > 33 µM

Cc1ccc2[nH]c(=O)c(CN(Cc3ccc(C(C)(C)C)cc3)C(C)c3ccc(OC(F)F)cc3)cc2c1 (configuration not stated)
EC50 (Influenza A virus): 0.36 µM | CC50 at 48 h [1]: > 5 µM

CCCc1ccc2[nH]c(=O)c(CN(Cc3ccc(F)cc3)Cc3ccc(C(C)(C)C)cc3)cc2c1
EC50 (Influenza A virus): 28 µM | CC50 at 48 h [1]: 8.4 µM

Cc1ccc2cc(C(C#N)N(Cc3ccc(F)cc3)Cc3ccc(C(C)C)cc3)c(=O)[nH]c2c1 (configuration not stated)
EC50 (Influenza A virus): 54 µM | CC50 at 48 h [1]: 21 µM

CCc1ccc2[nH]c(=O)c(CN(Cc3ccc(C(C)(C)C)cc3)C(C)c3ccc(OC(F)F)cc3)cc2c1 (configuration not stated)
EC50 (Influenza A virus): 0.32 µM | CC50 at 48 h [1]: > 5 µM

CC(C)c1ccc2[nH]c(=O)c(CN(Cc3ccc(C(C)(C)C)cc3)C(C)c3ccc(F)cc3)cc2c1 (configuration not stated)
EC50 (Influenza A virus): 5.4 µM | CC50 at 48 h [1]: 13.1 µM

COc1ccc(C(C)N(Cc2ccc(C(C)(C)C)cc2)Cc2cc3cc(C)ccc3[nH]c2=O)cc1 (configuration not stated)
EC50 (Influenza A virus): 0.26 µM | CC50 at 48 h [1]: > 5 µM

COc1ccc([C@H](C)N(Cc2ccc(OC(F)(F)F)cc2)Cc2cc3ccccc3[nH]c2=O)cc1
EC50 (Influenza A virus): 1.9 µM | CC50 at 48 h [1]: > 10 µM

CCc1ccc2[nH]c(=O)c(CN(Cc3cccc(F)c3)Cc3ccc4ccccc4c3)cc2c1
EC50 (Influenza A virus): 4.1 µM | CC50 at 48 h [1]: > 5 µM

C[C@@H](c1ccc(OC(F)(F)F)cc1)N(Cc1ccc(C(F)(F)F)c(Cl)c1)Cc1cc2cc(C3CC3)ccc2[nH]c1=O
EC50 (Influenza A virus): 0.12 µM | CC50 at 48 h [1]: 7.9 µM

CN(C)c1ccc(CN(Cc2ccc(C(C)(C)C)cc2)Cc2cc3cc(Br)ccc3[nH]c2=O)cc1
EC50 (Influenza A virus): 0.53 µM | CC50 at 48 h [1]: > 10 µM
